Laboratory results published in article PMC6496074, “The Evolution of Azole Resistance in Candida albicans Sterol 14α-Demethylase (CYP51) through Incremental Amino Acid Substitutions” (Antimicrobial Agents and Chemotherapy, 2019).
Values joined by “and” are separate entries in the source; they are usually repeats but may differ in a detail not shown here. Identical values can stand only once.

Columns and labels:
CaCYP51 Y132H+K143R [1] = target: T1, CaCYP51 Y132H+K143R (Candida albicans, UniProt P10613, K143R/Y132H); experiment: Azole ligand binding (type II difference spectra)
T1 construct: made in house; host or cells: E. coli DH5α (pCWori+)
Protocol: Studies of azole antifungal binding to 4 μM CaCYP51 proteins were performed as previously described ([53]) using quartz split cuvettes with a 4.5-mm light path. […] Azole antifungals were progressively titrated against the CaCYP51 proteins in 0.1 M Tris-HCl (pH 8.1) and 25% glycerol at 22°C, with equivalent volumes of dimethyl sulfoxide also being added to the CYP51-containing compartment of the reference cuvette. The absorbance difference spectra between 500 and 350 nm were determined after each incremental addition of azole, with binding saturation curves constructed from the change in the peak and trough absorbance (ΔApeak-trough) against the azole concentration. The dissociation constant (Kd) of the enzyme-azole complex for each azole was determined by nonlinear regression (Levenberg-Marquardt algorithm) using a rearrangement of the Morrison equation for tight ligand binding ([54], [55]). Tight binding is normally observed when the Kd for a ligand is similar to or lower than the concentration of the enzyme present ([56]). Where ligand binding was weak, the Michaelis-Menten equation was used to fit the data. Each binding determination was performed in triplicate. The chemical structures of the azole antifungals used in this study are shown in Fig. S5 in the supplemental material.

CaCYP51 Y132F = target: T2, CaCYP51 Y132F (Candida albicans, UniProt P10613, Y132F); experiment: CYP51 reconstitution assay; type: biochemical
T2 construct: made in house; host or cells: E. coli DH5α (pCWori+)
Protocol: (§1) Azole antifungal agents were added in 2.5 μl dimethyl sulfoxide, followed by 10 min of incubation at 37°C prior to assay initiation with 4 mM β-NADPH-Na4. The samples were then shaken for 15 min at 37°C. Sterol metabolites were recovered by extraction with ethyl acetate, followed by derivatization with 0.1 ml N,O-bis(trimethylsilyl)trifluoroacetamide (BSTFA)–trimethylchlorosilane (TMCS) (99:1) and 0.3 ml anhydrous pyridine (2 h at 80°C), prior to analysis by gas chromatography-mass spectrometry (GC-MS) ([52]). IC50 determinations were performed in duplicate.

CaCYP51 Y132H+K143R [2] = target: T1, CaCYP51 Y132H+K143R; experiment: CYP51 reconstitution assay; type: biochemical
Protocol: as §1

CaCYP51 Q474K = target: T3, CaCYP51 Q474K (Candida albicans, UniProt P10613, Q474K); experiment: CYP51 reconstitution assay; type: biochemical
T3 construct: made in house; host or cells: E. coli DH5α (pCWori+)
Protocol: as §1

CaCYP51 F449Y = target: T4, CaCYP51 F449Y (Candida albicans, UniProt P10613, F449Y); experiment: CYP51 reconstitution assay; type: biochemical
T4 construct: made in house; host or cells: E. coli DH5α (pCWori+)
Protocol: as §1

CaCYP51 Y257H = target: T5, CaCYP51 Y257H (Candida albicans, UniProt P10613, Y257H); experiment: CYP51 reconstitution assay; type: biochemical
T5 construct: made in house; host or cells: E. coli DH5α (pCWori+)
Protocol: as §1

CaCYP51 F126V = target: T6, CaCYP51 F126V (Candida albicans, UniProt P10613, F126V); experiment: CYP51 reconstitution assay; type: biochemical
T6 construct: made in house; host or cells: E. coli DH5α (pCWori+)
Protocol: as §1

CaCYP51 G450E = target: T7, CaCYP51 G450E (Candida albicans, UniProt P10613, G450E); experiment: CYP51 reconstitution assay; type: biochemical
T7 construct: made in house; host or cells: E. coli DH5α (pCWori+)
Protocol: as §1

CaCYP51 Y447H = target: T8, CaCYP51 Y447H (Candida albicans, UniProt P10613, Y447H); experiment: CYP51 reconstitution assay; type: biochemical
T8 construct: made in house; host or cells: E. coli DH5α (pCWori+)
Protocol: as §1

CaCYP51 G307S = target: T9, CaCYP51 G307S (Candida albicans, UniProt P10613, G307S); experiment: CYP51 reconstitution assay; type: biochemical
T9 construct: made in house; host or cells: E. coli DH5α (pCWori+)
Protocol: as §1

CaCYP51 G448E = target: T10, CaCYP51 G448E (Candida albicans, UniProt P10613, G448E); experiment: CYP51 reconstitution assay; type: biochemical
T10 construct: made in house; host or cells: E. coli DH5α (pCWori+)
Protocol: as §1

CaCYP51 I471T = target: T11, CaCYP51 I471T (Candida albicans, UniProt P10613, I471T); experiment: CYP51 reconstitution assay; type: biochemical
T11 construct: made in house; host or cells: E. coli DH5α (pCWori+)
Protocol: as §1

CaCYP51 Wild type = target: T12, CaCYP51 Wild type (Candida albicans, UniProt P10613); experiment: CYP51 reconstitution assay; type: biochemical
T12 construct: made in house; host or cells: E. coli DH5α (pCWori+)
Protocol: as §1

CaCYP51 V456I = target: T13, CaCYP51 V456I (Candida albicans, UniProt P10613, V456I); experiment: CYP51 reconstitution assay; type: biochemical
T13 construct: made in house; host or cells: E. coli DH5α (pCWori+)
Protocol: as §1

CaCYP51 V488I = target: T14, CaCYP51 V488I (Candida albicans, UniProt P10613, V488I); experiment: CYP51 reconstitution assay; type: biochemical
T14 construct: made in house; host or cells: E. coli DH5α (pCWori+)
Protocol: as §1

CaCYP51 G464S = target: T15, CaCYP51 G464S (Candida albicans, UniProt P10613, G464S); experiment: CYP51 reconstitution assay; type: biochemical
T15 construct: made in house; host or cells: E. coli DH5α (pCWori+)
Protocol: as §1

CaCYP51 K143R = target: T16, CaCYP51 K143R (Candida albicans, UniProt P10613, K143R); experiment: CYP51 reconstitution assay; type: biochemical
T16 construct: made in house; host or cells: E. coli DH5α (pCWori+)
Protocol: as §1

CaCYP51 Y132H = target: T17, CaCYP51 Y132H (Candida albicans, UniProt P10613, Y132H); experiment: CYP51 reconstitution assay; type: biochemical
T17 construct: made in house; host or cells: E. coli DH5α (pCWori+)
Protocol: as §1

CaCYP51 S405F = target: T18, CaCYP51 S405F (Candida albicans, UniProt P10613, S405F); experiment: CYP51 reconstitution assay; type: biochemical
T18 construct: made in house; host or cells: E. coli DH5α (pCWori+)
Protocol: as §1

CaCYP51 F145L = target: T19, CaCYP51 F145L (Candida albicans, UniProt P10613, F145L); experiment: CYP51 reconstitution assay; type: biochemical
T19 construct: made in house; host or cells: E. coli DH5α (pCWori+)
Protocol: as §1

CaCYP51 D278N = target: T20, CaCYP51 D278N (Candida albicans, UniProt P10613, D278N); experiment: CYP51 reconstitution assay; type: biochemical
T20 construct: made in house; host or cells: E. coli DH5α (pCWori+)
Protocol: as §1

CaCYP51 S279F = target: T21, CaCYP51 S279F (Candida albicans, UniProt P10613, S279F); experiment: CYP51 reconstitution assay; type: biochemical
T21 construct: made in house; host or cells: E. coli DH5α (pCWori+)
Protocol: as §1

CaCYP51 G307S+G450E = target: T22, CaCYP51 G307S+G450E (Candida albicans, UniProt P10613, G307S/G450E); experiment: CYP51 reconstitution assay; type: biochemical
T22 construct: made in house; host or cells: E. coli DH5α (pCWori+)
Protocol: as §1

CaCYP51 Y118A = target: T23, CaCYP51 Y118A (Candida albicans, UniProt P10613, Y118A); experiment: CYP51 reconstitution assay; type: biochemical; details: mean ± SD, duplicate
T23 construct: made in house; host or cells: E. coli DH5α (pCWori+)
Protocol: as §1

[3] = 0.25 h, 4 μM triazole, % of activity without triazole, read-out: Residual CYP51 activity (%) ± SD

T22 sequence (P10613 whole entry, looked up, stated change not applied): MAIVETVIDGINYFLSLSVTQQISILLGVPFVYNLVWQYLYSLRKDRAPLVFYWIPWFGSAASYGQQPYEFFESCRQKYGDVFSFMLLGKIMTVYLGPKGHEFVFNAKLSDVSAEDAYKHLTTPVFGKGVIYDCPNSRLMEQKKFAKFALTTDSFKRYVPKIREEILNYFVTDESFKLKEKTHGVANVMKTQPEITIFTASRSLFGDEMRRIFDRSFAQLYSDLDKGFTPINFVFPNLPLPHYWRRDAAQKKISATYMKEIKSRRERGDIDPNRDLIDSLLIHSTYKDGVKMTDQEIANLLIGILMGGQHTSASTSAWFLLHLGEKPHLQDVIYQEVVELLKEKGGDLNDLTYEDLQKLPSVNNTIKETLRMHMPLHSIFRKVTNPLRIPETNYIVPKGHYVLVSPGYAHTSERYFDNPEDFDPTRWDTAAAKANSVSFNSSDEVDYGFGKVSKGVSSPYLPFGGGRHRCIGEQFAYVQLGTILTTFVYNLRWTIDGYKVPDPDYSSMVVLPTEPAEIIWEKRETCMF
T1 sequence (P10613 whole entry, looked up, stated change not applied): as above
T19 sequence (P10613 whole entry, looked up, stated change not applied): as above
T12 sequence (P10613 whole entry, looked up, natural form): as the sequence (P10613 whole entry, looked up, stated change not applied) above
T4 sequence (P10613 whole entry, looked up, stated change not applied): as above
T11 sequence (P10613 whole entry, looked up, stated change not applied): as above
T16 sequence (P10613 whole entry, looked up, stated change not applied): as above
T20 sequence (P10613 whole entry, looked up, stated change not applied): as above
T5 sequence (P10613 whole entry, looked up, stated change not applied): as above

SMILES: OC(Cn1cncn1)(Cn1cncn1)c1ccc(F)cc1F [Fluconazole, fluconazole]
- Kd, fold larger than wild-type enzyme (CaCYP51 Y132H+K143R [1]): 362 fold
- Kd (CaCYP51 Y132H+K143R [1]; 4 μM protein, 22°C, ± standard deviation, triplicate, read-out: dissociation constant (Kd)): 18100 nM
- remaining activity at 4 µM (CaCYP51 Y132F; [3]): 7.05 ± 0.27%
- IC50 (CaCYP51 Y132F; mean ± SD, duplicate): 606 ± 66 nM
- fold increase in IC50 over wild-type enzyme (CaCYP51 Y132H+K143R [2]): 22 fold and 22.1 fold
- remaining activity at 4 µM (CaCYP51 Y132H+K143R [2]; [3]): 68.8 ± 5.68%
- IC50 (CaCYP51 Y132H+K143R [2]; mean ± SD, duplicate): 8470 ± 1270 nM
- remaining activity at 4 µM (CaCYP51 Q474K; [3]): 0.71 ± 0.08%
- IC50 (CaCYP51 Q474K; mean ± SD, duplicate): 358 ± 8 nM
- remaining activity at 4 µM (CaCYP51 F449Y; [3]): 0.76 ± 0.08%
- IC50 (CaCYP51 F449Y; mean ± SD, duplicate): 245 ± 28 nM
- remaining activity at 4 µM (CaCYP51 Y257H; [3]): 3.96 ± 0.18%
- IC50 (CaCYP51 Y257H; mean ± SD, duplicate): 512 ± 47 nM
- remaining activity at 4 µM (CaCYP51 F126V; [3]): 0.09 ± 0.06%
- IC50 (CaCYP51 F126V; mean ± SD, duplicate): 278 ± 27 nM
- remaining activity at 4 µM (CaCYP51 G450E; [3]): 18.9 ± 0.94%
- IC50 (CaCYP51 G450E; mean ± SD, duplicate): 1080 ± 247 nM
- remaining activity at 4 µM (CaCYP51 Y447H; [3]): 4.34 ± 0.51%
- IC50 (CaCYP51 Y447H; mean ± SD, duplicate): 483 ± 18 nM
- remaining activity at 4 µM (CaCYP51 G307S; [3]): 0.95 ± 0.17%
- IC50 (CaCYP51 G307S; mean ± SD, duplicate): 526 ± 211 nM
- remaining activity at 4 µM (CaCYP51 G448E; [3]): 10.5 ± 0.2%
- IC50 (CaCYP51 G448E; mean ± SD, duplicate): 796 ± 87 nM
- remaining activity at 4 µM (CaCYP51 I471T; [3]): 4.35 ± 0.33%
- IC50 (CaCYP51 I471T; mean ± SD, duplicate): 600 ± 17 nM
- remaining activity at 4 µM (CaCYP51 Wild type; 0.25 h, read-out: Residual CYP51 activity (%) ± SD): 0.11 ± 0.09%
- IC50 (CaCYP51 Wild type; IC50): 384 ± 19 nM
- remaining activity at 4 µM (CaCYP51 V456I; [3]): 3.68 ± 0.95%
- IC50 (CaCYP51 V456I; mean ± SD, duplicate): 483 ± 22 nM
- remaining activity at 4 µM (CaCYP51 V488I; [3]): 1.06 ± 0.04%
- IC50 (CaCYP51 V488I; mean ± SD, duplicate): 520 ± 57 nM
- remaining activity at 4 µM (CaCYP51 G464S; [3]): 3.05 ± 0.17%
- IC50 (CaCYP51 G464S; mean ± SD, duplicate): 455 ± 47 nM
- remaining activity at 4 µM (CaCYP51 K143R; [3]): 28.1 ± 2.04%
- IC50 (CaCYP51 K143R; mean ± SD, duplicate): 1100 ± 313 nM
- remaining activity at 4 µM (CaCYP51 Y132H; [3]): 0.86 ± 0.07%
- IC50 (CaCYP51 Y132H; mean ± SD, duplicate): 220 ± 13 nM
- remaining activity at 4 µM (CaCYP51 S405F; [3]): 11.6 ± 1.41%
- IC50 (CaCYP51 S405F; mean ± SD, duplicate): 820 ± 42 nM
- remaining activity at 4 µM (CaCYP51 F145L; [3]): 6.71 ± 0.15%
- IC50 (CaCYP51 F145L; mean ± SD, duplicate): 450 ± 83 nM
- remaining activity at 4 µM (CaCYP51 D278N; [3]): 7.59 ± 0.58%
- IC50 (CaCYP51 D278N; mean ± SD, duplicate): 838 ± 27 nM
- remaining activity at 4 µM (CaCYP51 S279F; [3]): 18 ± 1.67%
- IC50 (CaCYP51 S279F; mean ± SD, duplicate): 1050 ± 325 nM
- fold increase in IC50 over wild-type enzyme (CaCYP51 G307S+G450E): 13 fold
- remaining activity at 4 µM (CaCYP51 G307S+G450E; [3]): 56.8 ± 2.3%
- IC50 (CaCYP51 G307S+G450E; mean ± SD, duplicate): 4980 ± 54 nM
- IC50 (CaCYP51 Y118A): 194 ± 10 nM
